Assay [1] concerns MOLM-14 F691L (endogenous FLT3 ITD and transfected FLT3 F691L). The assay is described as follows: MOLM-14 F691L cell proliferation assay (CellTiter-Glo). The assay is classed as cell-based. To be noted: Homo sapiens, MOLM-14, 72 h; 3 d growth, GMean. In outline: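 MOLM-14 derivatives carrying D835Y or F691L, selected under escalating AC220, were seeded at 1×10^4 cells/well and exposed to an 8-point 1:3 compound series (1 to 0.00046 μM, 0.2% DMSO final) for three days at 37° C., 5% CO2. CellTiter-Glo luminescence (ATP content) versus concentration gave IC50.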
(ATP-based viability assays read luminescence as a measure of living cells.)

For the next assay, the target named is T1, BA/F3-FLT3-ITD + D835Y (Homo sapiens, UniProt P36888, D835Y, cells depend on it, form not given).
T1 sequence (P36888 with tags, fused parts or gaps INS600HVDFREYEYD/D835Y): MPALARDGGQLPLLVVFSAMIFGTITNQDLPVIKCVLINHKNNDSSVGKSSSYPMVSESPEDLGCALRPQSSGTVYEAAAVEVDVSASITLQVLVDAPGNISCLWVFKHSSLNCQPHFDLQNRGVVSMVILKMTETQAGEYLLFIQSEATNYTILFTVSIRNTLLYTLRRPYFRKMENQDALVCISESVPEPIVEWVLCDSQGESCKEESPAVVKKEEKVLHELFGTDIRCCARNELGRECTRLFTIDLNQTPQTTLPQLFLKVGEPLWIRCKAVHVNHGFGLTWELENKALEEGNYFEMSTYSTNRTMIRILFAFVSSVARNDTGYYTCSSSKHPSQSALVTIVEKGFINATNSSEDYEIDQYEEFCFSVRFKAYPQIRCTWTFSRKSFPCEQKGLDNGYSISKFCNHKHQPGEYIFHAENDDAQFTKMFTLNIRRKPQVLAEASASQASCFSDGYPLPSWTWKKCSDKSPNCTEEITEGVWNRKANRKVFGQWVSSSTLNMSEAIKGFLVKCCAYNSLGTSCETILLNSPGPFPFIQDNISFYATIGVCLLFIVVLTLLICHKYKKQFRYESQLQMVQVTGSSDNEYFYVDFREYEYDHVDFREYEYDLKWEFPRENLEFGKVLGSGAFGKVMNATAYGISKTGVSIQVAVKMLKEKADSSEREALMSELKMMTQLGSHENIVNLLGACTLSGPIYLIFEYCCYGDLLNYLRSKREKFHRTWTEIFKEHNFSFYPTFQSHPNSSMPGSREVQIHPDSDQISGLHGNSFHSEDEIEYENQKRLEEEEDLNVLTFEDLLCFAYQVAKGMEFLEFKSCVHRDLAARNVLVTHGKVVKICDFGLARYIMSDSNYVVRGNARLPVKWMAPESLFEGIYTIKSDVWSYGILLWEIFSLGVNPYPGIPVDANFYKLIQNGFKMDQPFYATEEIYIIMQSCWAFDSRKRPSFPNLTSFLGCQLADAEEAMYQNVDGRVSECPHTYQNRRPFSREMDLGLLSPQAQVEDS
The assay is described as follows: Engineered BA/F3 cell growth assay, FLT3 ITD/D835Y. The assay is classed as cell-based, murine. To be noted: 3 d growth. The procedure, abridged:
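IC50 derived from CellTiter-Glo ATP luminescence after 3 days at 37 °C, 5% CO2, over eight 1:3 dilutions from 1 μM (0.2% DMSO final). Cells: IL-3-independent murine Ba/F3 expressing full-length FLT3 ITD/D835Y, 1×10^4 per well.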

Turning to `Cn1cc(Nc2ncc(-c3ccc(CC(=O)Nc4cccc(OC(F)(F)F)c4)cc3)cn2)cn1` [Compound P-0157, 2-[4-[2-[(1-methylpyrazol-4-yl)amino]pyrimidin-5-yl]phenyl]-N-[3-(trifluoromethoxy)phenyl]acetamide], in assay [1], the IC50 fell in the range of 0.0001 to 10 µM. The concentration for 50% growth inhibition (GI50) at BA/F3-FLT3-ITD + D835Y was 0.0001 to 10 µM. In the case of `Cn1cc(Nc2ncc(-c3ccc(CC(=O)Nc4cnc(F)c(C(C)(F)F)c4)c(F)c3)cn2)cn1` [Compound P-0105, N-[5-(1,1-difluoroethyl)-6-fluoro-3-pyridyl]-2-[2-fluoro-4-[2-[(1-methylpyrazol-4-yl)amino]pyrimidin-5-yl]phenyl]acetamide], the IC50 in assay [1] fell in the range of 0.0001 to 10 µM. Moreover, at BA/F3-FLT3-ITD + D835Y, the 50% growth inhibitory concentration (GI50) is 0.0001 to 10 µM. Take `Cc1ncc(NC(=O)Cc2ccc(-c3cnc(Nc4cnn(C)c4)nc3)cc2)cc1C(F)(F)F` [Compound P-0140, 2-[4-[2-[(1-methylpyrazol-4-yl)amino]pyrimidin-5-yl]phenyl]-N-[6-methyl-5-(trifluoromethyl)-3-pyridyl]acetamide]: the IC50 in assay [1] is 0.0001 to 10 µM. In addition, on BA/F3-FLT3-ITD + D835Y, the GI50 was 0.0001 to 10 µM. Turning to `N#Cc1cc(-c2cc3cc(-c4ccc(CC(=O)Nc5cncc(C(F)(F)F)c5)cc4F)cnc3[nH]2)ccn1` [Compound P-0199, 2-[4-[2-(2-cyano-4-pyridyl)-1H-pyrrolo[2,3-b]pyridin-5-yl]-3-fluoro-phenyl]-N-[5-(trifluoromethyl)-3-pyridyl]acetamide], in assay [1], the IC50 is 0.0001 to 10 µM. Further, at BA/F3-FLT3-ITD + D835Y, the concentration for 50% growth inhibition (GI50) lay in the range of 0.0001 to 10 µM.

In assay [1], `Cn1cc(Nc2ncc(-c3ccc(CC(=O)Nc4cnc(Cl)c(C(F)(F)F)c4)cc3)cn2)cn1` [Compound P-0145, N-[6-chloro-5-(trifluoromethyl)-3-pyridyl]-2-[4-[2-[(1-methylpyrazol-4-yl)amino]pyrimidin-5-yl]phenyl]acetamide] came in with a concentration for half-maximal inhibition (IC50) of 0.0001 to 10 µM. Besides, at BA/F3-FLT3-ITD + D835Y, the concentration for 50% growth inhibition (GI50) lay in the range of 0.0001 to 10 µM. `CCn1cc(Nc2ncc(-c3ccc(CC(=O)Nc4cncc(C(F)(F)F)c4)cc3)cn2)cn1` [Compound P-0166, 2-[4-[2-[(1-ethylpyrazol-4-yl)amino]pyrimidin-5-yl]phenyl]-N-[5-(trifluoromethyl)-3-pyridyl]acetamide] displayed an IC50 in assay [1] of 0.0001 to 10 µM. Also, the GI50 at BA/F3-FLT3-ITD + D835Y lay in the range of 0.0001 to 10 µM. `COCCn1cc(Nc2ncc(-c3ccc(CC(=O)Nc4cnc(C)c(C(F)(F)F)c4)cc3)cn2)cn1` [Compound P-0179, 2-[4-[2-[[1-(2-methoxyethyl)pyrazol-4-yl]amino]pyrimidin-5-yl]phenyl]-N-[6-methyl-5-(trifluoromethyl)-3-pyridyl]acetamide]: in assay [1], the IC50 is 0.0001 to 10 µM. Also, at BA/F3-FLT3-ITD + D835Y, the concentration for 50% growth inhibition (GI50) fell in the range of 0.0001 to 10 µM. In assay [1], `Cn1cc(Nc2ncc(-c3ccc(CC(=O)Nc4cc(Cl)c(C5CC5)cn4)c(F)c3)cn2)cn1` [Compound P-0107, N-(4-chloro-5-cyclopropyl-2-pyridyl)-2-[2-fluoro-4-[2-[(1-methylpyrazol-4-yl)amino]pyrimidin-5-yl]phenyl]acetamide] came in with an IC50 of 0.0001 to 10 µM. Besides, the concentration for 50% growth inhibition (GI50) on BA/F3-FLT3-ITD + D835Y lay in the range of 0.0001 to 10 µM. In the case of `Cn1cc(Nc2ncc(-c3ccc(CC(=O)Nc4ccnc(C(F)(F)F)n4)cc3)cn2)cn1` [Compound P-0137, 2-[4-[2-[(1-methylpyrazol-4-yl)amino]pyrimidin-5-yl]phenyl]-N-[2-(trifluoromethyl)pyrimidin-4-yl]acetamide], in assay [1], the half-inhibitory concentration (IC50) is 0.0001 to 10 µM. On BA/F3-FLT3-ITD + D835Y, the GI50 lay within 0.0001 to 10 µM.

For the compound `Cn1cc(Nc2ncc(-c3ccc(CC(=O)Nc4ccnc(C5CC5)c4)c(F)c3)cn2)cn1` [Compound P-0098, N-(2-cyclopropyl-4-pyridyl)-2-[2-fluoro-4-[2-[(1-methylpyrazol-4-yl)amino]pyrimidin-5-yl]phenyl]acetamide], the IC50 in assay [1] is 0.0001 to 10 µM. Moreover, on BA/F3-FLT3-ITD + D835Y, the GI50 fell in the range of 0.0001 to 10 µM. Compound `Cn1cc(Nc2ncc(-c3ccc(CC(=O)Nc4ccc(C(F)(F)F)cn4)c(F)c3)cn2)cn1` [Compound P-0106, 2-[2-fluoro-4-[2-[(1-methylpyrazol-4-yl)amino]pyrimidin-5-yl]phenyl]-N-[5-(trifluoromethyl)-2-pyridyl]acetamide] had an IC50 in assay [1] of 0.0001 to 10 µM. Besides, at BA/F3-FLT3-ITD + D835Y, the concentration for 50% growth inhibition (GI50) fell in the range of 0.0001 to 10 µM. The compound `Cn1cc(Nc2ncc(-c3ccc(CC(=O)Nc4cncc(C(C)(F)F)c4)cc3)cn2)cn1` [Compound P-0144, N-[5-(1,1-difluoroethyl)-3-pyridyl]-2-[4-[2-[(1-methylpyrazol-4-yl)amino]pyrimidin-5-yl]phenyl]acetamide] yielded a 50% inhibitory concentration (IC50) in assay [1] of 0.0001 to 10 µM. In addition, the GI50 at BA/F3-FLT3-ITD + D835Y lay in the range of 0.0001 to 10 µM. `COc1cncc(NC(=O)Cc2ccc(-c3cnc(Nc4cnn(C)c4)nc3)cc2)c1` [Compound P-0133, N-(5-methoxy-3-pyridyl)-2-[4-[2-[(1-methylpyrazol-4-yl)amino]pyrimidin-5-yl]phenyl]acetamide] returned an IC50 in assay [1] of 0.0001 to 10 µM. For the same compound, at BA/F3-FLT3-ITD + D835Y, the GI50 was 0.0001 to 10 µM.

In turn, `Cn1cc(Nc2ncc(-c3ccc(CC(=O)Nc4ccc(C(F)(F)F)cn4)cc3)cn2)cn1` [Compound P-0109, 2-[4-[2-[(1-methylpyrazol-4-yl)amino]pyrimidin-5-yl]phenyl]-N-[5-(trifluoromethyl)-2-pyridyl]acetamide] yielded a half-inhibitory concentration (IC50) in assay [1] of 0.0001 to 10 µM. The concentration for 50% growth inhibition (GI50) at BA/F3-FLT3-ITD + D835Y lay within 0.0001 to 10 µM. Consider `CC(C)c1cc(NC(=O)Cc2ccc(-c3cnc(Nc4cnn(C)c4)nc3)cc2F)ccn1` [Compound P-0094, 2-[2-fluoro-4-[2-[(1-methylpyrazol-4-yl)amino]pyrimidin-5-yl]phenyl]-N-(2-isopropyl-4-pyridyl)acetamide], for which the IC50 in assay [1] is 0.0001 to 10 µM. The GI50 on BA/F3-FLT3-ITD + D835Y was 0.0001 to 10 µM. Take `N#Cc1ccc(-c2cc3cc(-c4ccc(CC(=O)Nc5cncc(C(F)(F)F)c5)cc4F)cnc3[nH]2)cn1` [Compound P-0195, 2-[4-[2-(6-cyano-3-pyridyl)-1H-pyrrolo[2,3-b]pyridin-5-yl]-3-fluoro-phenyl]-N-[5-(trifluoromethyl)-3-pyridyl]acetamide]: at BA/F3-FLT3-ITD + D835Y, the concentration for 50% growth inhibition (GI50) lay within 0.0001 to 10 µM. Regarding `COc1ccc(-c2cc3cc(-c4ccc(CC(=O)Nc5cc(C(F)(F)F)ccn5)cc4F)cnc3[nH]2)cn1` [Compound P-0191, 2-[3-fluoro-4-[2-(6-methoxy-3-pyridyl)-1H-pyrrolo[2,3-b]pyridin-5-yl]phenyl]-N-[4-(trifluoromethyl)-2-pyridyl]acetamide], at BA/F3-FLT3-ITD + D835Y, the GI50 is 0.0001 to 10 µM.

For `Cc1ncc(NC(=O)Cc2ccc(-c3cnc4[nH]nc(C)c4c3)c(F)c2)cc1C(F)(F)F` [Compound P-0172, 2-[3-fluoro-4-(3-methyl-1H-pyrazolo[3,4-b]pyridin-5-yl)phenyl]-N-[6-methyl-5-(trifluoromethyl)-3-pyridyl]acetamide], the GI50 on BA/F3-FLT3-ITD + D835Y was 0.0001 to 10 µM. Consider `COc1cc(NC(=O)Cc2ccc(-c3cnc(Nc4cnn(C)c4)nc3)cc2)ccn1` [Compound P-0153, N-(2-methoxy-4-pyridyl)-2-[4-[2-[(1-methylpyrazol-4-yl)amino]pyrimidin-5-yl]phenyl]acetamide], for which, at BA/F3-FLT3-ITD + D835Y, the concentration for 50% growth inhibition (GI50) was in the range of 0.0001 to 10 µM.

As for `Cn1cnc(Nc2ncc(-c3ccc(CC(=O)Nc4cnc(F)c(C(C)(F)F)c4)cc3F)cn2)c1` [Compound P-0170, N-[5-(1,1-difluoroethyl)-6-fluoro-3-pyridyl]-2-[3-fluoro-4-[2-[(1-methylimidazol-4-yl)amino]pyrimidin-5-yl]phenyl]acetamide], at BA/F3-FLT3-ITD + D835Y, the 50% growth inhibitory concentration (GI50) was in the range of 0.0001 to 10 µM. On to `Cn1cc(Nc2ncc(-c3ccc(CC(=O)Nc4cnnc(Cl)c4)cc3)cn2)cn1` [Compound P-0151, N-(6-chloropyridazin-4-yl)-2-[4-[2-[(1-methylpyrazol-4-yl)amino]pyrimidin-5-yl]phenyl]acetamide], for which the GI50 on BA/F3-FLT3-ITD + D835Y was in the range of 0.0001 to 10 µM. For `COc1ncc(NC(=O)Cc2cc(F)c(-c3cnc4[nH]nc(C)c4c3)cc2F)cc1C(F)(F)F` [Compound P-0176, 2-[2,5-difluoro-4-(3-methyl-1H-pyrazolo[3,4-b]pyridin-5-yl)phenyl]-N-[6-methoxy-5-(trifluoromethyl)-3-pyridyl]acetamide], at BA/F3-FLT3-ITD + D835Y, the GI50 was 0.0001 to 10 µM. The same measure, in the same setting: the same measure for `N#Cc1cc(-c2cc3cc(-c4ccc(CC(=O)Nc5cc(C(F)(F)F)ccn5)cc4F)cnc3[nH]2)ccn1` [Compound P-0194, 2-[4-[2-(2-cyano-4-pyridyl)-1H-pyrrolo[2,3-b]pyridin-5-yl]-3-fluoro-phenyl]-N-[4-(trifluoromethyl)-2-pyridyl]acetamide]: 0.0001 to 10 µM.

For orientation: IC50 means the concentration that inhibits the measured activity by half. Lower therefore signals greater potency. One may read the GI50 as the concentration that inhibits growth by half.
